Results on six molecules are retold here after article PMC11391341, “Rational design and in vitro testing of new urease inhibitors to prevent urinary catheter blockage” (RSC Medicinal Chemistry, 2024).

Series [1] relates to P. mirabilis B4. Nature of the series: In vitro bladder model of the catheterized urinary tract. The class given is cell-based, Proteus mirabilis. Conditions: balloon inflated with 20 mM compound, Biomodics IPN catheter. The procedure: The in vitro bladder model of a catheterized urinary tract enables the simulation of the crystalline biofilm and measurement of the blockage of the catheter caused by a P. mirabilis infection.[44,45] The artificial bladders were infected with a high inoculum of bacteria to mimic a late-stage CAUTI, average inoculation was 3.36 × 10^7 CFU mL^−1. Each model was catheterized with a Biomodics IPN catheter, and the balloons were inflated with 20 mM AHA in a 9 : 1 mixture of saline and DMSO; 20 mM Bis-TU in a 9 : 1 mixture of saline and DMSO; and the control bladder a 9 : 1 mixture of saline and DMSO. The artificial bladders were allowed to equilibrate over 18 h before inoculation. There is approximately a four-fold dilution during the diffusion of the compound in the artificial urine (∼5 mM at the start), however, this concentration changes once the pumps start because of the continual dilution from the filling of the bladder from the ‘kidneys’ and the drainage via the catheter. Monitoring of the pH and CFU mL^−1 in the bladder allowed tracking of the experiment (Fig. 6A and B). […] The blockage of the catheters was the end of the experiment and allowed determination of whether the compounds could increase the lifetime of the catheter (Fig. 6C).
In vitro bladder models were set up as described by Nzakizwanayo et al., the flow rate was set to run at 0.8 mL min^−1 using a Watson-Marlow 323S/D (030.3134.3DU) pump.[45] The artificial bladders were maintained at 37 °C and catheterized with Biomodics IPN catheters (donated by Biomodics ApS). Balloons were inflated with 10 mL of the following solutions: control bladder: a 9 : 1 mixture of saline (150 mM sodium chloride) and DMSO; Bis-TU bladder: 20 mM Bis-TU in a 9 : 1 mixture of saline and DMSO; and AHA bladder: 20 mM AHA in a 9 : 1 mixture of saline and DMSO. The models were set up and filled with artificial urine until they started to drain, the pump was then paused, and the compound solution allowed to equilibrate with the artificial urine in the bladder for 18 h. P. mirabilis B4 (from the Jenkins Group bacteria collection) was grown at 37 °C overnight with 200 rpm shaking in 10 mL of LB (Merck, Germany). […] Inoculation and CFU was determined by the Miles and Misra quantification technique.[56] At regular time intervals during the experiment, a sample was taken aseptically from each artificial bladder for bacterial quantification and to measure the pH. The end of the experiment was determined when the bladders blocked. Additionally, the artificial bladders were monitored by time-lapse photography overnight using a Nikon D3100 camera with photos taken every 2 min.

Series [2] deals with T1, urease expressed in whole cell Proteus mirabilis (Proteus mirabilis, UniProt P17086).
T1 construct: Urease in P. mirabilis is intracellular; endogenous in cells; host or cells: Proteus mirabilis B4 (Jenkins Group collection, University of Bath), whole cells
T1 sequence (P17086 whole entry): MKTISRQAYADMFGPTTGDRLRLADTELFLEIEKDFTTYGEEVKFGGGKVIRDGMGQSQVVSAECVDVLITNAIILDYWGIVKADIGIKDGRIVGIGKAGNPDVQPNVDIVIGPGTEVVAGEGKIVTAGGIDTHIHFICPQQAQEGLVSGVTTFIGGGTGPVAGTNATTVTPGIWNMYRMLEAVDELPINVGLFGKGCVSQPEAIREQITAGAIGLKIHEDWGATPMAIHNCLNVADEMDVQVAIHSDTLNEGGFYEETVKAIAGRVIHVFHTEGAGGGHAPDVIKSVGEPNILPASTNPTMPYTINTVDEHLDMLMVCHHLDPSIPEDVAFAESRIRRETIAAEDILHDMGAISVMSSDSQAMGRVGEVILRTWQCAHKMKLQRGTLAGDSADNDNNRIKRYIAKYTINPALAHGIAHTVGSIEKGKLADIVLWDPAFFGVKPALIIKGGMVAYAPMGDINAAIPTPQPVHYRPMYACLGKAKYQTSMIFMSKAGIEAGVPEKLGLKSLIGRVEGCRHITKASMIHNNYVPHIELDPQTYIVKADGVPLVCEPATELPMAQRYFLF
Description: Urease activity assay (Berthelot), whole-cell P. mirabilis. Conditions: for A1 (dose-response fit parameter) / A2 (dose-response fit parameter): % urease activity; for A1 (dose-response fit parameter) / A2 (dose-response fit parameter) / LOGx0 (dose-response fit): Proteus mirabilis whole cell, Supplementary Table 3; for fold lower IC50 than AHA: whole cell P. mirabilis urease. The class given is cell-based. The procedure:
The in vitro assay used to measure the urease activity was the Berthelot assay, which measure the accumulation of ammonia.[54,55] Compounds were tested using whole-cell P. mirabilis B4 (from the Jenkins Group collection, University of Bath). P. mirabilis was cultured overnight, 37 °C with 200 rpm shaking in 10 mL of Luria-Bertani broth (LB, Merck, Germany). The overnight culture was centrifuged, 3100 g, 10 min, at 4 °C (5810 R Eppendorf); the supernatant was discarded, and the pellet resuspended in phosphate buffer saline (PBS, Fisher Scientific, UK). In each well of a 96-well plate (Corning) 10 μL of 0.5% sulfuric acid was added. P. mirabilis (100 μL, 0.004 mg mL^−1) in phosphate buffer was incubated with the desired compound concentration and urea (100 μL, 50 mM in phosphate buffer) for 30 min at 37 °C.
Experiments were run in triplicate of two technical replicates (n = 6), with 10-fold dilutions of the compounds including a positive and negative control. To each well, 20 μL of 60 mM sodium hydroxide is added. Solution A (50 μL, 106 mM phenol, 191 μM sodium nitroprusside) and solution B (50 μL, 125 mM sodium hydroxide, 125 mM sodium hypochlorite) were added to each well and the plate was incubated for 30 min at 37 °C. The absorbance of the wells was read at 636 nm (SPECTROstar Omega BMG LabTech, Germany). Urease activity was calculated using eqn (1). IC50 was determined using non-linear regression (GraphPad Prism v9).1 [drawing 1]

The test system of series [3] is E. coli NSM59. Description: Minimum inhibitory concentration (MIC) assay, E. coli. The class given is cell-based, Escherichia coli. The protocol: (§1) The compound was dissolved in sterile water with 5% (v/v) DMSO. To the first column on a 96-well plate (Corning, UK), 200 μL of compound was added, it was then serially diluted two-fold (100 μL) across the plate to column 10. A subculture of P. mirabilis (1 × 10^6 CFU mL^−1) or E. coli NSM59 (1 × 10^6 CFU mL^−1, from the Jenkins Group collection, University of Bath), 100 μL, was added to all columns 1–10. LB broth only was added to column 11, the negative control and 200 μL of P. mirabilis/E. coli subculture was added to column 12, the positive control. The plate was incubated at 37 °C for 18 h, using a SPECTROstar Omega plate reader (BMJ LabTech) the absorbance at 600 nm was measured at regular time points during the 18 h incubation. The plate was shaken for 10 s, at 200 rpm prior to a reading being taken. The MIC was defined as the lowest concentration of compound that inhibited growth and the highest concentration that permitted bacterial growth. Initially, this was done through visualization of the plate after 18 h but also through examination of the growth curves measured at OD600.

The nature of series [4]: Delivery across the catheter balloon into artificial urine (UV-vis). Type of series: physicochemical. The following applies: 37 °C, 12 h. The protocol:
Delivery through the permeable balloon was measured using UV-vis spectroscopy with a quartz cuvette (pathlength 1 cm) (Agilent Cary 60 UV-vis spectrometer). Calibration curves for AHA (Sigma) and N,N′-bis(3-pyridinylmethyl)thiourea (Flurochem, Bis-TU (A11)) were prepared using absorbances 235 nm and 239 nm, respectively (Fig. S5 ^†). Sterile 50 mL beakers were used to mimic the bladder; catheters were inflated with compound solutions, AHA (320 mM) or Bis-TU (85 mM). Biomodics IPN catheters were compared to standard all-silicone catheters (Tiga-Med, Germany). Beakers were filled with artificial urine, prepared according to Nzakizwanayo et al., 30 mL was added to the beakers which were sealed with parafilm and incubated at 37 °C.[45] Every hour for 12 h, 1 mL was removed from the artificial urine surrounding the catheter balloon and the absorbance spectra was measured. The 1 mL was returned to the beaker, so the volume remained constant. The quantity of compound released over time was determined using the calibration curves. Limit of detection (LOD) was calculated by eqn (2), where σ is the standard deviation of the lowest concentration.2 [drawing 2]

Series [5] relates to HepG2 cells. Nature of the series: HepG2 mammalian cell viability (MTT assay). Type of series: cell-based. Conditions: for survival of HepG2 cells: 10 mM, 24 h incubation. The protocol: Freezer stocks of HepG2 cells were defrosted and re-suspended in Dulbecco's Eagle medium (DMEM) complete (Gibco, this contains minimum essential media (MEM, Gibco)). A T75 flask (Nunc) was seeded with 10 mL of complete DMEM. Cells were grown for 3–4 days, a 37 °C, 5% CO2, to achieve adherent cells. Old media was removed and 5 mL of PBS added to wash the cells, this was then aspirated. Cells were incubated with 3 mL, 0.25% trypsin (Gibco), and PBS (previously warmed to 37 °C) for 7 min at 37 °C. After incubation cells were checked using a microscope (Nikon TMS inverted phase contrast) to confirm that they were no longer adherent. Cells were dissociated with 4 mL of media and re-suspended by pipetting 10 mL approximately 20 times. Cells were centrifuged for 3 min at 1000 rpm, media was aspirated, and pellet was resuspended in 1 mL of media. Cells were counted using a hemocytometer and new flasks were reseeded with 200 μL of cells to 10 mL of media. To maintain stocks, cells were sub-cultured every 2–3 days.
Compounds, AHA and Bis-TU, were prepared at 10 mM with 1% DMSO in DMEM media. Varying concentrations of compounds were prepared by serial dilution across at 96-well plate (100 μL). MTT (Invitrogen) assay was used to measure the metabolic activity of the HepG2 cells. MTT (1 mg mL^−1) in media was filter sterilized and cell culture plates, 96-well (Nunc), were seeded with 1 × 10^4 cells per well and grown for 24 h. Media/compound was removed and MTT (100 μL) was added for 60 min at 37 °C and then removed. Isopropanol (150 μL) was added and the plate was incubated in foil for 15 min on an orbital shaker. Absorbance was measured at 590 nm (reference filter at 620 nm) (Sunrise, Tecan). The % survival was calculated as per eqn (4).4 [drawing 4]
Background: Tetrazolium dyes change colour on reduction, which living cells bring about.

Series [6] concerns P. mirabilis B4. Description: Minimum inhibitory concentration (MIC) assay, P. mirabilis. The class given is cell-based, Proteus mirabilis. The protocol: as §1
Series [7] can be described thus: Solubility (statement in conclusions). The class given is physicochemical.

Entries after “also recorded” stand apart in the source; their conditions may differ. Like-named read-outs stand apart in the source and are kept apart here.

For “Acetohydroxamic acid [AHA, reference compound]”, the “quantity of bacteria (CFU mL^−1) in the bladder model” value in series [1] is reported as “comparable across all bladders”. In series [2], the “A1 (dose-response fit parameter)” value was 1.739%, the “A2 (dose-response fit parameter)” value is listed as 91.3% and the “LOGx0 (dose-response fit)” value was -4.436. In addition, the IC50 in series [2] (whole cell Proteus mirabilis, ± standard deviation, read-out: IC50) came to 36.6 µM. In addition, in series [3], the “inhibitory effect on growth” value is “only a modest inhibitory effect”. For the same molecule, in series [4], the “release across balloon of Biomodics IPN catheter” value is given as “zero order kinetics release” and the “release across balloon of standard silicone catheter” value is recorded as “no release”. Also, the “survival of HepG2 cells” value in series [5] is listed as “affect the survival”. The “inhibitory effect on growth” value in series [6] was “only a modest inhibitory effect”.
Consider `O=c1c(O)c(-c2ccc(O)c(O)c2)oc2cc(O)cc(O)c12` [Quercetin, quercetin, reference compound], for which, in series [2], the concentration for half-maximal inhibition (IC50) amounted to 0.866 µM, the “A1 (dose-response fit parameter)” value is listed as -6.874%, the “A2 (dose-response fit parameter)” value is given as 68.53% and the “fold lower IC50 than AHA” value is given as “ca. 25 fold”.
In the case of `S=C(NCc1cccnc1)NCc1cccnc1` [Compound A11, N,N′-bis(3-pyridinylmethyl)thiourea], the solubility entry in series [7] is “relatively low solubility”. In series [1], the “catheter blockage time (lifetime of the catheter)” value was “significantly outperformed the clinical standard AHA, and the control”; the “pH in the bladder model” value was “lower than that of the AHA and control bladders”; the “quantity of bacteria (CFU mL^−1) in the bladder model” value is listed as “comparable across all bladders”. For the same molecule, in series [2], half-maximal inhibition (IC50) required 1.4 µM, the “A1 (dose-response fit parameter)” value is on record as -6.896%, the “A2 (dose-response fit parameter)” value was determined as 85.9% and the “LOGx0 (dose-response fit)” value is reported as -5.851. In addition, in series [2], the “fold lower IC50 than AHA” value is reported as “ca. 25 fold”. The “inhibitory effect on growth” value in series [3] was “only a modest inhibitory effect”. In series [4], the “release across balloon of Biomodics IPN catheter” value is reported as “zero order kinetics release” and the “release across balloon of standard silicone catheter” value is “no release”. Further, the “survival of HepG2 cells” value in series [5] was “affect the survival”. For the same molecule, the “effect on HepG2 cells, AHA vs Bis-TU” value in series [5] (concentrations below 1.25 mM, 24 h) is given as “no difference”. Also, the “inhibitory effect on growth” value in series [6] is on record as “only a modest inhibitory effect”.
Turning to `NC(=S)Nc1ccccc1` [Compound A5, N-phenylthiourea], in series [2], the 50% inhibitory concentration (IC50) was determined as 9.66 µM, the “A1 (dose-response fit parameter)” value is -2834%, the “A2 (dose-response fit parameter)” value is reported as 141.8% and the “LOGx0 (dose-response fit)” value is on record as -5.015.
Regarding `NC(=O)CS` [Compound 2-MA, 2-mercaptoacetamide, reference compound], the IC50 result in series [2] (whole cell Proteus mirabilis, ± standard deviation) was “did not fit to a sigmoidal dose–response curve; also recorded: No fit”.
`NC(=S)NCc1ccccc1` [Compound A6, benzylthiourea]: in series [2], it took 22.7 µM to reach half-maximal inhibition (IC50), the “A1 (dose-response fit parameter)” value was found to be 5.57%, the “A2 (dose-response fit parameter)” value is listed as 78.71% and the “LOGx0 (dose-response fit)” value was -4.644.

A word on the IC50: it is the concentration needed to halve the response being measured.
